The text below walks through data of patent US4910195A, “Dihydropyridine derivatives” (Green Cross Corporation, priority 1986, dated 1990).

Molecules are shown by their SMILES.

A short description of the experiment: Hypotensive effect, systolic pressure by indirect tail-cuff method without anesthesia, oral administration. It counts as in vivo, male rats, 10- to 11-week-old. The note with it: rats, 10 mg/kg, suspended in 10% HCO-60. The procedure:
An experiment was conducted to investigate the hypotensive effects of the dihydropyridine derivatives (I) and acid addition salts thereof on 10- to 11-week-old male rats (3 to 5 animals per group).
For blood pressure determination, systolic pressure was measured without anesthesia by an indirect tail-cuff method using a sphygmomanometer (PE-300, Narco Bio-System).
Each of the test compounds was suspended in 10% HCO-60 (polyoxyethylated castor oil produced by Nikko Chemicals K.K.) and administered orally to the animals in a dose of 10 mg/kg. Blood pressure measurements were conducted at predetermined time intervals.

As to `COC(=O)C1=C(C)NC(C)=C(C(=O)OCCN(C)Cc2ccccc2)C1c1cccc([N+](=O)[O-])c1` (centres unmarked) [nicardipine], the “50% recovery time (time required for the reduced blood pressure to return to half the maximal reduction)” value amounted to 3.1 h and the “maximum blood pressure fall” value is 20%.
